Laboratory results published in ChEMBL document CHEMBL5647694, “Novel orally bioavailable EZH1/2 dual inhibitors with greater antitumor efficacy than an EZH2 selective inhibitor” (Cancer Sci, 2017).
pIC50: −log10 of the molar value.

Experiments:
[1] = Toxicity in Crl:CD Sprague-Dawley rat assessed as red blood cell count in blood at 100 mg/kg, po administered daily for 14 days (reference value: 6.71+/-0.386 10^6/uL); format: organism-based; details: in vivo, 336 h, time 14 day
[2] = Toxicity in Crl:CD Sprague-Dawley rat assessed as globulin level in blood at 100 mg/kg, po administered daily for 14 days (reference value: 1.6 +/-0.082 g/dL); format: organism-based; details: in vivo, 336 h, time 14 day
[3] = molecular target: Serine/threonine-protein kinase D1 (Homo sapiens) (UniProt Q15139); assay: Inhibition of N-terminal GST-fused full length human PKD1 (1 to 912 residues) expressed in baculovirus expression system using GS peptide as substrate at 1 uM in presence of ATP by Mobility shift assay
Chain of Serine/threonine-protein kinase D1 (Homo sapiens) (Q15139 whole entry, the tested form may be a part): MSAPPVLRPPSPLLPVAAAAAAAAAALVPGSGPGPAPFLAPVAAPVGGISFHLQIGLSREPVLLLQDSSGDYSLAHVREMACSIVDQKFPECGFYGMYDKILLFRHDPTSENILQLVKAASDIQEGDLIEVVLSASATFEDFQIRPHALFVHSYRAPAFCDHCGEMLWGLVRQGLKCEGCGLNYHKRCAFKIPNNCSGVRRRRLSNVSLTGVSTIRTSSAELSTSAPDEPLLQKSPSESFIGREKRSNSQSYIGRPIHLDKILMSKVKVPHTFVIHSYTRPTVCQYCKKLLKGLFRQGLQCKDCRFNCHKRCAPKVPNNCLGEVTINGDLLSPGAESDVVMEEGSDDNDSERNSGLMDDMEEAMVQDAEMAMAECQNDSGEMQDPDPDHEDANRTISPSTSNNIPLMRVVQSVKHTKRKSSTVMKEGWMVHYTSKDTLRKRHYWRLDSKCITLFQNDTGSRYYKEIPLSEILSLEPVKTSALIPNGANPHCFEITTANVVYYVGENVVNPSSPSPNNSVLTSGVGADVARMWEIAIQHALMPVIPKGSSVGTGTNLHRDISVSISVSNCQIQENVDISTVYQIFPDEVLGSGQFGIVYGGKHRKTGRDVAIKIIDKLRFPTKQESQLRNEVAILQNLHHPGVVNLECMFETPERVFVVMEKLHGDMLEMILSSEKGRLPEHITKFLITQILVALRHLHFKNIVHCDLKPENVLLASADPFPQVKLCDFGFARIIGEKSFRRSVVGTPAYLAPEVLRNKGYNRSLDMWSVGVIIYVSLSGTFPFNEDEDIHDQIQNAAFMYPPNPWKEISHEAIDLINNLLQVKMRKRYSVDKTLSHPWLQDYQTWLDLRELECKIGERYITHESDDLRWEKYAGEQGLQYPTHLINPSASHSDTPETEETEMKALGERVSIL

[4] = Mean AUC (0-24 hrs) in Crl:CD Sprague-Dawley rat at 100 mg/kg, po by LC/MS/MS analysis; format: ADME, organism-based; details: in vivo
[5] = Toxicity in Crl:CD Sprague-Dawley rat assessed as reticulocyte percentile in blood at 100 mg/kg, po administered daily for 14 days (reference value: 4.68+/-0.802%); format: organism-based; details: in vivo, 336 h, time 14 day
[6] = molecular target: Fibroblast growth factor receptor 4 (Homo sapiens) (UniProt P22455); assay: Inhibition of N-terminal GST-fused human FGFR4 cytoplasmic domain (460 to 802 residues) expressed in baculovirus-infected Sf21 cells using CSKtide as substrate at 1 uM in presence of ATP by Mobility shift assay
Chain of Fibroblast growth factor receptor 4 (Homo sapiens) (P22455 22-802 limits assumed): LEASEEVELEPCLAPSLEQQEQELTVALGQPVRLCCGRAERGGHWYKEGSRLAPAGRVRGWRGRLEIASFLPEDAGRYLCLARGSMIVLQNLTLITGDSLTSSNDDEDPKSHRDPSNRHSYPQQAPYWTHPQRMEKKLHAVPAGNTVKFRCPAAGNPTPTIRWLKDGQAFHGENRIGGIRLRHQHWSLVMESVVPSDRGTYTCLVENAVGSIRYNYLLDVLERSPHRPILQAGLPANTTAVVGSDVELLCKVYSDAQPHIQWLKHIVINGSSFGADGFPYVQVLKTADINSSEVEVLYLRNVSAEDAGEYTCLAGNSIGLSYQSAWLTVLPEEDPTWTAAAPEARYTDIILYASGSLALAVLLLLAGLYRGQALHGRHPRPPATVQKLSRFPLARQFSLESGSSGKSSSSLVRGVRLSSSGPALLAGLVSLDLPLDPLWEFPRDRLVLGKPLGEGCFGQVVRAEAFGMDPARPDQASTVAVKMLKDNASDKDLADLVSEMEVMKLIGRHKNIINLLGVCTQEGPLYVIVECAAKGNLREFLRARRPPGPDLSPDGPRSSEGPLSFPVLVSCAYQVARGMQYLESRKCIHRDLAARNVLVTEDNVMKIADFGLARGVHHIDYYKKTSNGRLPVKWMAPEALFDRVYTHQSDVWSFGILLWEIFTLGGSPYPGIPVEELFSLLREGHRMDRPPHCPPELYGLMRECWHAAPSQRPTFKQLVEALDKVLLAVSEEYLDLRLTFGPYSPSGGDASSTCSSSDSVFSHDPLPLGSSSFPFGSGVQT

[7] = molecular target: RAC-beta serine/threonine-protein kinase (Homo sapiens) (UniProt P31751); assay: Inhibition of N-terminal GST-tagged human AKT2 catalytic domain (120 to 481 residues) co-expressed with His-tagged PDK1 (1 to 556 residues) in baculovirus-infected Sf21 cells using Crosstide as substrate at 1 uM in presence of ATP by Mobility shift assay
Chain of RAC-beta serine/threonine-protein kinase (Homo sapiens) (P31751 whole entry, the tested form may be a part): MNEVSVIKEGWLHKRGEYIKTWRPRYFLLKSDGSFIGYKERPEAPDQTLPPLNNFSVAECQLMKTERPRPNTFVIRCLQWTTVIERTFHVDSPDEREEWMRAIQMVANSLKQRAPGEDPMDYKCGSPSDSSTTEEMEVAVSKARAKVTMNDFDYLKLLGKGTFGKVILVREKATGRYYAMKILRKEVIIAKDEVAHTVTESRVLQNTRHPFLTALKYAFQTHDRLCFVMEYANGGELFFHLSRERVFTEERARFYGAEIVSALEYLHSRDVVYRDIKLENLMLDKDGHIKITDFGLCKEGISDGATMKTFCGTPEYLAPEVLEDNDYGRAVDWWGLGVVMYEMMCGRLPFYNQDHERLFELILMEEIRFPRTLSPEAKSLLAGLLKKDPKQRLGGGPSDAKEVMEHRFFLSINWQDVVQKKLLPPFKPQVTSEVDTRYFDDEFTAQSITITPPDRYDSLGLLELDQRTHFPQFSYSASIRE

[8] = Toxicity in Crl:CD Sprague-Dawley rat assessed as decrease in food consumption at 100 mg/kg, po administered daily for 14 days; format: organism-based; details: in vivo, 336 h, time 14 day
[9] = molecular target: Histone-lysine N-methyltransferase NSD2 (Homo sapiens, UniProt O96028, T1150A); assay: Inhibition of human NSD2 T1150A mutant using Nucleosomes and [3H]SAM as substrate incubated for 30 mins to 1 hr by HotSpot kinase assay
[10] = tested on: SNU-423; assay: Antitumor activity against human SNU-423 cells assessed as cell growth inhibition treated for 10 to 15 days; format: functional; details: time 10-15 day
[11] = tested on: DMS-114; assay: Antitumor activity against human DMS-114 cells assessed as cell growth inhibition treated for 10 to 15 days; format: functional; details: time 10-15 day
[12] = tested on: Granta-519; assay: Antitumor activity against human Granta-519 cells assessed as cell growth inhibition treated for 10 to 15 days; format: functional; details: time 10-15 day
[13] = tested on: HCC1806; assay: Antitumor activity against human HCC1806 cells assessed as cell growth inhibition treated for 10 to 15 days; format: functional; details: time 10-15 day
[14] = tested on: MKN-45; assay: Antitumor activity against human MKN-45 cells assessed as cell growth inhibition treated for 10 to 15 days; format: functional; details: time 10-15 day
[15] = tested on: RPMI-6666; assay: Antitumor activity against human RPMI-6666 cells assessed as cell growth inhibition treated for 10 to 15 days; format: functional; details: time 10-15 day
[16] = Antitumor activity against human OV7 cells assessed as cell growth inhibition treated for 10 to 15 days; format: functional; details: time 10-15 day
[17] = tested on: THP-1; assay: Antitumor activity against human THP-1 cells assessed as cell growth inhibition treated for 10 to 15 days; format: functional; details: time 10-15 day
[18] = molecular target: DNA (cytosine-5)-methyltransferase 3B (Homo sapiens, UniProt Q9UBC3); assay: Inhibition of human DNMT3b using lambda DNA and [3H]SAM as substrate incubated for 30 mins to 1 hr by HotSpot kinase assay
[19] = tested on: NCI-H2081; assay: Antitumor activity against human NCI-H2081 cells assessed as cell growth inhibition treated for 10 to 15 days; format: functional; details: time 10-15 day
[20] = tested on: HCC1143; assay: Antitumor activity against human HCC1143 cells assessed as cell growth inhibition treated for 10 to 15 days; format: functional; details: time 10-15 day
[21] = tested on: Ramos; assay: Antitumor activity against human Ramos cells assessed as cell growth inhibition treated for 10 to 15 days; format: functional; details: time 10-15 day
[22] = tested on: Hs 766; assay: Antitumor activity against human Hs766T cells assessed as cell growth inhibition treated for 10 to 15 days; format: functional; details: time 10-15 day
[23] = molecular target: PRMT5/MEP50 complex (Homo sapiens, UniProt O14744+Q9BQA1); assay: Inhibition of human PRMT5/MEP50 using Histone H2A and [3H]SAM as substrate incubated for 30 mins to 1 hr by HotSpot kinase assay; format: protein-complex assay
[24] = tested on: TALL-1; assay: Antitumor activity against human TALL-1 cells assessed as cell growth inhibition treated for 10 to 15 days; format: functional; details: time 10-15 day
[25] = tested on: HCC1599; assay: Antitumor activity against human HCC1599 cells assessed as cell growth inhibition treated for 10 to 15 days; format: functional; details: time 10-15 day
[26] = tested on: MDA-MB-415; assay: Antitumor activity against human MDA-MB-415 cells assessed as cell growth inhibition treated for 10 to 15 days; format: functional; details: time 10-15 day
[27] = tested on: SJRH30; assay: Antitumor activity against human SJRH30 cells assessed as cell growth inhibition treated for 10 to 15 days; format: functional; details: time 10-15 day
[28] = molecular target: DNA (cytosine-5)-methyltransferase 1 (Homo sapiens, UniProt P26358); assay: Inhibition of human DNMT1 using Poly (dl-dC) and [3H]SAM as substrate incubated for 30 mins to 1 hr by HotSpot kinase assay
Chain of DNA (cytosine-5)-methyltransferase 1 (P26358 whole entry): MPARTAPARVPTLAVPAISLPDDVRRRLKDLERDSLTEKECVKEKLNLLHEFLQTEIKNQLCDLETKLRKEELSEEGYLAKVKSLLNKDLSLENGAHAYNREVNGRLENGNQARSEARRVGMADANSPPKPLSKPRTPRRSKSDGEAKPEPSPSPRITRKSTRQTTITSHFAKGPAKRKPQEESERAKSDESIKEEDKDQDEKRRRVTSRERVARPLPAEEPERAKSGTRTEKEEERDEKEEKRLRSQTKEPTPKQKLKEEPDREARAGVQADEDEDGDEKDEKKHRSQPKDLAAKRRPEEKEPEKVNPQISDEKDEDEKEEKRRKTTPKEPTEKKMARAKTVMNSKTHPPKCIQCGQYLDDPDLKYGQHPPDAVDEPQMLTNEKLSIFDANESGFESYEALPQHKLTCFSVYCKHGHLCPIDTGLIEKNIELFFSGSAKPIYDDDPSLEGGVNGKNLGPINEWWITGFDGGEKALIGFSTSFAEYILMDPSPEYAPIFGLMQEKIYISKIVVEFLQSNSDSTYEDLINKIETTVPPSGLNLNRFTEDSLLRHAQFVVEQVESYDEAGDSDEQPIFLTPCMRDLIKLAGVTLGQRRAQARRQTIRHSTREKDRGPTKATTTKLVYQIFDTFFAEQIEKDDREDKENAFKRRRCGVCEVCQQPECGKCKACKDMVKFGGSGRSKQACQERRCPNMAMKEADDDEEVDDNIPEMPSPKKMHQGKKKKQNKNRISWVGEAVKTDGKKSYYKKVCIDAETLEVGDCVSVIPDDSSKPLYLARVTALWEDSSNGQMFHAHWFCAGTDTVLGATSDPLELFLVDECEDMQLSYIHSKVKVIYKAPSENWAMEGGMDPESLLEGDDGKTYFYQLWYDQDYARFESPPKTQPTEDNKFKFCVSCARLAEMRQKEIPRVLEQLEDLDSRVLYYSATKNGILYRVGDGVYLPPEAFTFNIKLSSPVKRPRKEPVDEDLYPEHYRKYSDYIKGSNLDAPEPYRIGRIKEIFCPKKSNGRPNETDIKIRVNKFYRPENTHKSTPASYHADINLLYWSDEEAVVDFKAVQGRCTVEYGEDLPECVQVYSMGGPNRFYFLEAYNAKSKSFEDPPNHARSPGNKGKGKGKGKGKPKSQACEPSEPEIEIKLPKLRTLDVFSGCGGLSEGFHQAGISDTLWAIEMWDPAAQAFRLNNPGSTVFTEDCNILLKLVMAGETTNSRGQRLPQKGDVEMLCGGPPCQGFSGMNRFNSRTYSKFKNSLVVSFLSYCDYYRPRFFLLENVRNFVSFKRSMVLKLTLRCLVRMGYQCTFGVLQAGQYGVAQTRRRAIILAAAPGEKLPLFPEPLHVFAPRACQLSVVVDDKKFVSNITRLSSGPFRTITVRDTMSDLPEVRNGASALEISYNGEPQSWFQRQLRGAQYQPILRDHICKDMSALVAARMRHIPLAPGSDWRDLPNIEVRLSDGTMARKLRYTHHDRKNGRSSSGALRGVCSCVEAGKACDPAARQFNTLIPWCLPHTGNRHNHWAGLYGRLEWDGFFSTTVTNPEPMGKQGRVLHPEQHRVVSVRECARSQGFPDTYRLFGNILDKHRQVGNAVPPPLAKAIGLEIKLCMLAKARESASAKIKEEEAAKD

[29] = tested on: MKN-7; assay: Antitumor activity against human MKN-7 cells assessed as cell growth inhibition treated for 10 to 15 days; format: functional; details: time 10-15 day
[30] = Antitumor activity against human CMK-86 cells assessed as cell growth inhibition treated for 10 to 15 days; format: functional; details: time 10-15 day
[31] = tested on: BT-474; assay: Antitumor activity against human BT-474 cells assessed as cell growth inhibition treated for 10 to 15 days; format: functional; details: time 10-15 day
[32] = tested on: CA46; assay: Antitumor activity against human CA46 cells assessed as cell growth inhibition treated for 10 to 15 days; format: functional; details: time 10-15 day
[33] = molecular target: Histone-lysine N-methyltransferase 2D (Homo sapiens, UniProt O14686); assay: Inhibition of human MLL2 using Core Histone and [3H]SAM as substrate incubated for 30 mins to 1 hr by HotSpot kinase assay
[34] = tested on: SW48; assay: Antitumor activity against human SW48 cells assessed as cell growth inhibition treated for 10 to 15 days; format: functional; details: time 10-15 day
[35] = molecular target: Histone-lysine N-methyltransferase PRDM9 (Homo sapiens, UniProt Q9NQV7); assay: Inhibition of human PRDM9 using Histone H3 and [3H]SAM as substrate incubated for 30 mins to 1 hr by HotSpot kinase assay
Chain of Histone-lysine N-methyltransferase PRDM9 (Q9NQV7 whole entry, the tested form may be a part): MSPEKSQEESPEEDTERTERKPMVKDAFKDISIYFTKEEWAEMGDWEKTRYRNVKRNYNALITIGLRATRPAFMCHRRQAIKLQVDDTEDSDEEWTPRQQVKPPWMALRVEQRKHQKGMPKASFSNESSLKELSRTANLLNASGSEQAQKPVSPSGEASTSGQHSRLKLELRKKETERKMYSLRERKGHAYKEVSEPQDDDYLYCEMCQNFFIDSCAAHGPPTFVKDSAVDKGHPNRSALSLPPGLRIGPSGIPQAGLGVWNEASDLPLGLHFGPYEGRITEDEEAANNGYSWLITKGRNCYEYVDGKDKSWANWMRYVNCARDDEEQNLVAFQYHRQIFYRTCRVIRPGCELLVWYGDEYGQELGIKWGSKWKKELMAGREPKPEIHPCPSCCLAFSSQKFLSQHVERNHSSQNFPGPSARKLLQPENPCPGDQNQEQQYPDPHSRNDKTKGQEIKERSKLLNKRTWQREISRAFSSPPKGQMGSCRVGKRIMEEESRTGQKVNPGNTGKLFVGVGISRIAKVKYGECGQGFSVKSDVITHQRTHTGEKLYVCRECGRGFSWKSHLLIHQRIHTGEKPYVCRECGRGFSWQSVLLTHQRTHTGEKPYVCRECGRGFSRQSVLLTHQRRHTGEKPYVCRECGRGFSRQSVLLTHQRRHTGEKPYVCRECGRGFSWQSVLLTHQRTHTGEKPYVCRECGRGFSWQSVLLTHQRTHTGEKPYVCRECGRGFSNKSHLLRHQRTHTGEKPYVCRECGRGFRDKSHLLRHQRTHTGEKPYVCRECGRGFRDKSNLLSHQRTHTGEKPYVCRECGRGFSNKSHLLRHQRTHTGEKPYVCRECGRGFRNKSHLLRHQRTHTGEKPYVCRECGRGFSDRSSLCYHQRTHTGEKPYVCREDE

[36] = molecular target: Histone-lysine N-methyltransferase EHMT2 (Homo sapiens, UniProt Q96KQ7); assay: Inhibition of human G9a using Histone H3 (1-21 residues) and [3H]SAM as substrate incubated for 30 mins to 1 hr by HotSpot kinase assay
[37] = tested on: JeKo-1; assay: Antitumor activity against human JeKo-1 cells assessed as cell growth inhibition treated for 10 to 15 days; format: functional; details: time 10-15 day
[38] = tested on: NCI-N87; assay: Antitumor activity against human NCI-N87 cells assessed as cell growth inhibition treated for 10 to 15 days; format: functional; details: time 10-15 day
[39] = tested on: Hs-578T; assay: Antitumor activity against human Hs-578T cells assessed as cell growth inhibition treated for 10 to 15 days; format: functional; details: time 10-15 day

For Cc1cc(C)c(CNC(=O)c2cc(Br)c3c(c2C)O[C@@](C)([C@H]2CC[C@H](N(C)C)CC2)O3)c(=O)[nH]1, the Activity [1] was 6.59 10^6 /uL, the Activity [2] was 1.55 g/dL and the inhibition [3] was -6.9%. For the same compound, the AUC [4] was 25.2 µM·h, the Activity [5] was 4.48% and the inhibition [6] was -3.7%. The inhibition [7] was -9.5% and the Activity [8] was “Toxic”.
For Cc1cc(C)c(CNC(=O)c2cc(Cl)c3c(c2C)O[C@@](C)([C@H]2CC[C@H](N(C)C)CC2)O3)c(=O)[nH]1 [VALEMETOSTAT], the pIC50 [9] was 4.00, the GI50 [10] was > 1 µM and the GI50 [11] was 0.0055 µM. For the same compound, the GI50 [12] was > 1 µM, the GI50 [13] was > 1 µM and the GI50 [14] was > 1 µM. For the same compound, the GI50 [15] was 0.0684 µM, the GI50 [16] was > 1 µM and the GI50 [17] was 0.0681 µM. The pIC50 [18] was 4.00, the GI50 [19] was 0.982 µM and the GI50 [20] was > 1 µM. The GI50 [21] was > 1 µM, the GI50 [22] was > 1 µM and the inhibition [3] was -6.9%. The pIC50 [23] was 4.00, the GI50 [24] was > 1 µM and the GI50 [25] was > 1 µM. For the same compound, the GI50 [26] was 0.0247 µM, the GI50 [27] was > 1 µM and the pIC50 [28] was 4.00. The GI50 [29] was > 1 µM, the GI50 [30] was 0.444 µM and the GI50 [31] was > 1 µM. For the same compound, the inhibition [6] was -5.6%, the GI50 [32] was 0.296 µM and the pIC50 [33] was < 4.00. The GI50 [34] was > 1 µM, the pIC50 [35] was 4.00 and the pIC50 [36] was 4.00. For the same compound, the GI50 [37] was 0.0922 µM, the GI50 [38] was 0.536 µM and the GI50 [39] was > 1 µM.
